Reference: patent EP0823908B1, “PYRIDO[2,3-d]PYRIMIDINES FOR INHIBITING PROTEIN TYROSINE KINASE MEDIATED [sequence] PROLIFERATION” (Warner-Lambert Company LLC, priority 1995, dated 1996)

Experiments:
[1] = biological target: T1, Human EGF receptor tyrosine kinase (Homo sapiens, UniProt P00533); assay: EGF receptor tyrosine kinase enzyme assay (substrate peptide phosphorylation); format: biochemical; conditions: read-out: EGF-FL IC50
T1 construct: Human EGF receptor tyrosine kinase was isolated from A431 epidermoid carcinoma cells; endogenous in cells; host or cells: A431 epidermoid carcinoma cells

PDGF receptor = PDGF receptor autophosphorylation in rat aorta smooth muscle cells; format: cell-based; conditions: PDGF-BB 30 ng/mL for 5 minutes after 2 hours with compound; read-out: Inhibition of PDGF-Stimulated Receptor Auto Phosphorylation in Rat Aortic Smooth Muscle Cells (IC50)
Method: Rat aorta smooth muscle cells (RASMC) were isolated from the thoracic aorta of rats and explanted according to the method of Ross, J. Cell. Biol., 30:172-186 (1971). Cells were grown in Dulbecco's modified Eagle's medium (DMEM, Gibco) containing 10% fetal calf serum (FBS, Hyclone, Logan, Utah), 1% glutamine (Gibco) and 1% penicillin/streptomycin (Gibco). Cells were identified as smooth muscle cells by their "hill and valley" growth pattern and by fluorescent staining with a monoclonal antibody specific for SMC ∝-actin (Sigma). RASMC were used between passages 5 and 20 for all experiments. Test compounds were prepared in dimethylsulfoxide (DMSO) in order to achieve consistency in the vehicle and to ensure compound solubility. Appropriate DMSO controls were simultaneously evaluated with the test compounds.
RASMC were grown to confluency in 100 mm dishes. Growth medium was removed and replaced with serum-free medium and cells were incubated at 37°C for an additional 24 hours. Test compounds were then added directly to the medium and cells incubated for an additional 2 hours. After 2 hours, PDGF-BB was added at a final concentration of 30 ng/mL for 5 minutes at 37°C to stimulated autophosphorylation of the PDGF receptor. Following growth factor treatment, the medium was removed, and cells were washed with cold phosphate-buffered saline and immediately lysed with 1 mL of lysis buffer (50 mM HEPES[pH 7.5], 150 mM NaCl, 10% glycerol, 1% Triton X-100, 1 mM EDTA, 1 mMEGTA, 50 mM NaF, 1 mM sodium orthovanadate, 30 mM p-nitrophenyl phosphate, 10 mM sodium pyrophosphate, 1 mM phenylmethyl sulfonyl fluoride, 10 µg/mL aprotinin, and 10 µg/mL leupeptin). Lysates were centrifuged at 10,000 × g for 10 minutes. […] Following the incubation, protein-A-sepharose beads were added for 2 hours with continuous mixing, and immune complexes bound to the beads washed four times with 1 mL lysis wash buffer. Immune complexes were solubilized in 30 µL of Laemmli sample buffer and electrophoresed in 4-20% SDS polyacrylamide gels. Following electrophoresis, separated proteins were transferred to nitrocellulose and immunoblotted with anti-phosphotyrosine antiserum. […] IC50 values were generated from the densitometric data.

HT-29 = assay: Soft agar colony formation, human colon adenocarcinoma cells; format: cell-based; conditions: HT-29, 336 h, colony formation in 0.3% soft agar, generally 2 weeks, read-out: Inhibition of Human Colon Adenocarcinoma IC50, HT-29
Method: (§1) Three such human cell lines were identified as HCT-8, SW-620, and HT-29. In a typical assay, the cells are suspended in 0.3% soft agar containing an invention compound at various concentration levels, and are plated into six-well plates, each plate containing a 1% agar plug. The cell plates are incubated at 37°C in a humidified carbon dioxide (5%) incubator, generally for 2 weeks. At the end of the incubation period, colonies of cells are detected by staining the wells with 1 mg/mL of p-iodonitrotetrazolium violet. The cells are counted on an optical colony counter. […] TABLE III. Inhibition of Human Colon Adenocarcinoma IC50 (µM)

HCT-8 = assay: as above; format: cell-based; conditions: HCT-8, 336 h, colony formation in 0.3% soft agar, generally 2 weeks, read-out: Inhibition of Human Colon Adenocarcinoma IC50, HCT-8
Method: as §1

SW-620 = assay: as above; format: cell-based; conditions: SW-620, 336 h, colony formation in 0.3% soft agar, generally 2 weeks, read-out: Inhibition of Human Colon Adenocarcinoma IC50, SW-620
Method: as §1

[2] = biological target: T2, human FGF-1 (flg) receptor tyrosine kinase (Homo sapiens, UniProt P11362); assay: FGF receptor tyrosine kinase assay (32P incorporation into glutamate-tyrosine co-polymer); format: biochemical; conditions: read-out: FGFr-TK IC50
T2 construct: amplify a fragment of DNA that codes for the intracellular tyrosine kinase domain; made in house; host or cells: SF9 insect cells (baculovirus)
Summary of the method: (§2)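 32P transfer from γ32P-ATP (50 µM ATP) to poly(Glu,Tyr) 4:1 was measured over 10 min at 25°C and counted after TCA precipitation onto filters, minus the no-enzyme background. Enzyme was baculovirus/SF9 lysate of the kinase domain, preincubated 10 min with inhibitor in Hepes pH 7.0, MnCl2, vanadate.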

C-src kinase = biological target: T3, C-src kinase (Homo sapiens, UniProt P12931); assay: C-src kinase assay (poly GluTyr substrate); format: biochemical; conditions: read-out: C-src TK IC50
T3 construct: made in house; host or cells: baculovirus infected insect cells

[3] = biological target: T4, mouse PDGF-β receptor tyrosine kinase (Mus musculus, UniProt P05622); assay: PDGF receptor tyrosine kinase assay (32P incorporation into glutamate-tyrosine co-polymer); format: biochemical; conditions: read-out: PDGFr-TK IC50
T4 construct: amplify a fragment of DNA that codes for the intracellular tyrosine kinase domain; made in house; host or cells: SF9 insect cells (baculovirus)
Summary of the method: as §2

transplanted tumors = assay: Transplanted tumor assay; format: in vivo; conditions: F1 hybrid mice; compound generally by infusion by tail tether
Method: F1 hybrid mice were used in the assay. The mice receive ascites fluid or dilutions of tumor brei on Day 0. A sample of the inocula is incubated in thioglycolate media as a check for gross contamination of the tumor material. After all test animals are inoculated with tumors, they are randomized for the assay. Control animals receive vehicle, while treated animals receive an invention compound dissolved in the vehicle, generally by infusion by tail tether. All animals are monitored daily for acute toxicity and other clinical signs. Survival is checked daily for the control group and treated group. The assay generally is continued for 60 days, at which time all surviving animals are euthanized.

T1 sequence (P00533 25-1210): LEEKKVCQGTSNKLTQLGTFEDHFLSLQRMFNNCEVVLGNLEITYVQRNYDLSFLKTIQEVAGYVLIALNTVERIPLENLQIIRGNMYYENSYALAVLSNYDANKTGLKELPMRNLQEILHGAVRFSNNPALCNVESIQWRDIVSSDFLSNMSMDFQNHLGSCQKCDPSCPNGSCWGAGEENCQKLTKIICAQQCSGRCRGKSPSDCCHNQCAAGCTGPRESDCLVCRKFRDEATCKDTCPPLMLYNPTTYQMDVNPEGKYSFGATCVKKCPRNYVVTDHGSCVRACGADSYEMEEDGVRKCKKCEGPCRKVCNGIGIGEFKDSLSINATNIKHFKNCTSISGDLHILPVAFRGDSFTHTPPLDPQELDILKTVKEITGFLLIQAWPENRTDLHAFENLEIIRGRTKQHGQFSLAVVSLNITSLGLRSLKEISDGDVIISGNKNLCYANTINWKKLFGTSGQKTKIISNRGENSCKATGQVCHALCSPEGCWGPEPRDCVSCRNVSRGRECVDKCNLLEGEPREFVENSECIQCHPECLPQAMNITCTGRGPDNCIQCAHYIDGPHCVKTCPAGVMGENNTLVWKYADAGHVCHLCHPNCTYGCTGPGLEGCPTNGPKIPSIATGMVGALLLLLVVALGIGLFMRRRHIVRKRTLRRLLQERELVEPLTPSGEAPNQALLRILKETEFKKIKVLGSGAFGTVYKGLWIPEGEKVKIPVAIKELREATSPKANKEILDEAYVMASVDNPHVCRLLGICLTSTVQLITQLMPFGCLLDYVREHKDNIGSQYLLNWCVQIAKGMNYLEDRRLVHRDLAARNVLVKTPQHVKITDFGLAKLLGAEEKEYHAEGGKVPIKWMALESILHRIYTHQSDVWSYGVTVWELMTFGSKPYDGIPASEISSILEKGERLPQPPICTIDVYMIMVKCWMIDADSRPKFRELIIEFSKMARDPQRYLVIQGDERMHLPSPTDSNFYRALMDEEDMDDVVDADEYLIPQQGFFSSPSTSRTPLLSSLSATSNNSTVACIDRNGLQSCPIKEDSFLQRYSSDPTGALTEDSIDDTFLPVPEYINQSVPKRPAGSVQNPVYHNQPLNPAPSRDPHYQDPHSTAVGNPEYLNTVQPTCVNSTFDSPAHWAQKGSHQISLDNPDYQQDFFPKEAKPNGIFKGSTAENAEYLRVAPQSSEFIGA
T3 sequence (P12931 whole entry): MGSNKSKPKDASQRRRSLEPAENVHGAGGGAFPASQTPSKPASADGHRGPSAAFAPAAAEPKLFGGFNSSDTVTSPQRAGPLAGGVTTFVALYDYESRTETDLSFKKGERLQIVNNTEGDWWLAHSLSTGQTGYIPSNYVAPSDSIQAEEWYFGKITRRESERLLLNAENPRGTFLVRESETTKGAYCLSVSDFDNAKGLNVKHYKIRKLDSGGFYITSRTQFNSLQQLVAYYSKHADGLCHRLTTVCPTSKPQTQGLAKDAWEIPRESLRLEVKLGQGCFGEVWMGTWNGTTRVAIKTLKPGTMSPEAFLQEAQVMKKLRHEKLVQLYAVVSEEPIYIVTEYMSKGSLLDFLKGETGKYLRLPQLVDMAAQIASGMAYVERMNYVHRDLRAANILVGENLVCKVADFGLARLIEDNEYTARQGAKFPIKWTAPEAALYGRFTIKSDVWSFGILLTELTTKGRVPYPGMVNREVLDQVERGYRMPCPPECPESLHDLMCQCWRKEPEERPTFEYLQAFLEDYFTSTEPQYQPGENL
T2 sequence (P11362 478-767 limits assumed): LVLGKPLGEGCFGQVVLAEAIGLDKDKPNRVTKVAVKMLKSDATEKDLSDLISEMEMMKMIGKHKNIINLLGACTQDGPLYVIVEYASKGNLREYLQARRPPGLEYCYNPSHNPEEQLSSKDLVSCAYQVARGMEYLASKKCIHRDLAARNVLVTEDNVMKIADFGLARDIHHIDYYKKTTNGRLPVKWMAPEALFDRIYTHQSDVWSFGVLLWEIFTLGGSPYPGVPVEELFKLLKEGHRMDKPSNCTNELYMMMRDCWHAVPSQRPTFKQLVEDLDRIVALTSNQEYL
T4 sequence (P05622 599-961 limits assumed): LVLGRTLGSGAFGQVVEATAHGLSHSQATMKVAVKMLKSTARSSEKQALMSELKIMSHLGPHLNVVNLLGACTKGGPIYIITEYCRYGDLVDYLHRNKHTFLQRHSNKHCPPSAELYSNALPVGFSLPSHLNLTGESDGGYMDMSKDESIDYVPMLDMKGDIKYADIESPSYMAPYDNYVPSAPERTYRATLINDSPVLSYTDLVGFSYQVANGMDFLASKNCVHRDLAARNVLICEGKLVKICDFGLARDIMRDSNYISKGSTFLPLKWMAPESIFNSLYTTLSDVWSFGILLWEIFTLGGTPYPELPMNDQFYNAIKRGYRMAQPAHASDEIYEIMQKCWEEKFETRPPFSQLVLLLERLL

IC50 [1] | IC50 (PDGF receptor) | IC50 (HT-29) | IC50 (HCT-8) | IC50 (SW-620) | IC50 [2] | IC50 (C-src kinase) | IC50 [3] | Compound | life span of animals infected with transplanted tumors (transplanted tumors)
5600 nM | 9400 nM | – | – | – | – | – | – | Cn1c(=O)c(-c2c(Cl)cccc2Cl)cc2cnc(N)nc21 [Example 12, 2-Amino-6-(2,6-dichlorophenyl)-8-methyl-pyrido[2,3-d]-pyrimidin-7(8H)-one] | –
– | 60 nM | 430 nM | 110 nM | 120 nM | 2200 nM | 59 nM | 1800 nM | Cn1c(=O)c(-c2c(Cl)cccc2Cl)cc2cnc(Nc3cccc(Br)c3)nc21 [Example 55, 2-(3-Bromophenylamino)-6-(2,6-dichlorophenyl)-8-methyl-8H-pyrido[2,3-d]pyrimidin-7-one] | –
119 nM | 13 nM | 380 nM | 170 nM | 130 nM | 159 nM | 23 nM | 71 nM | Cn1c(=O)c(-c2c(Cl)cccc2Cl)cc2cnc(Nc3ccncc3)nc21 [Example 58, 6-(2,6-Dichlorophenyl)-8-methyl-2-(pyridin-4-ylamino)-8H-pyrido[2,3-d]pyrimidin-7-one] | –
– | – | – | – | – | – | – | – | CCN(CC)CCOc1ccc(Nc2ncc3cc(-c4c(Cl)cccc4Cl)c(=O)n(C)c3n2)cc1 [Example 80, 6-(2,6-Dichlorophenyl)-2-[4-(2-diethylaminoethoxy)-phenylamino]-8-methyl-8H-pyrido[2,3-d]pyrimidin-7-one] | increased the life span
